Experimental data reported in patent US10454124B2, “Highly stable phenazine derivatives for aqueous redox flow batteries” (Battelle Memorial Institute, priority 2017, dated 2019).
Values after ≈ are worked out from the molar mass of the structure shown.

Key:
[1] = cited from earlier work
[2] = Cyclic voltammetry in 1 M NaOH; format: physicochemical; settings: scan rate 100 mV/sec, 8.5 mM
Procedure: Electrochemical Methods: Cyclic voltammetry experiments were performed with a CH Instruments model 660C potentiostat using a glassy carbon working electrode, a platinum wire counter electrode, and a Ag/AgCl reference electrode.
[…]. This potential exceeds all other aqueous organic flow battery systems reported to date, which, combining the high effective electron concentration resulted from high solubility, leads to high theoretical energy densities.

[3] = Solubility limit in 1 M NaOH; format: physicochemical; settings: aqueous buffer
Text: In one embodiment, the phenazine derivative is present in the electrolyte at a concentration within a range of 0.01 M to 4 M. In an independent embodiment, the phenazine derivative is present in the electrolyte at a concentration within a range of from 4 M to 8 M. Certain embodiments of the phenazine derivatives provide 2 moles of electron transfer per mole of the compound, thus providing, for example, 2 M electron transfer when the phenazine derivative concentration is 1 M.

SMILES | solubility in water [1] | redox couple (vs. Ag/AgCl) [2] [V] | solubility [3] [mM]
c1ccc2nc3ccccc3nc2c1 [phenazine] | insoluble in water |  | 
O=S(=O)(O)c1ccc2nc3cc(O)c(O)cc3nc2c1 [DHPS, 7,8-dihydroxy-phenazine-2-sulfonic acid] |  | −1.08 | 1450 (≈ 424 mg/mL)
